The values that follow come from patent publication US20200215204A1, “EARLY-ONSET PARKINSON'S DISEASE MODEL: (D331Y) PLA2G6 KNOCKIN MODEL, PLATFORM AND METHOD FOR DRUG SCREENING, AND KIT OF DETECTION” (Chang Gung Memorial Hospital, Linkou, priority 2019, published 2020).

The structures appear in SMILES notation.

For assay [1], the system named is PLA2G6^D331Y/D331Y knockin mice. As to the kind of experiment: Locomotor activity in open field boxes after L-DOPA in homozygous (D331Y) PLA2G6 knockin mice. Conditions: about 1.5 mg/kg; homozygous PLA2G6^D331Y/D331Y knockin mouse at about 9 months old. The assay is classed as in vivo. The method, then:
Behavioral Assessments The locomotor activity of WT or (D331Y) PLA2G6 KI mice were evaluated in open field boxes for 60 minutes. Movements of animal were recorded and assessed with the TopScan video tracking system (Clever Sys., Inc.). The locomotor activity of mouse was examined by measuring the velocity and distance. To evaluate the therapeutic benefit of L-DOPA in PLA2G6^D331Y/D331Y mice, benserazide (0.5 mg/kg) and L-DOPA (1.5 mg/kg) were intraperitoneally administered into animal. The locomotor activity was recorded 40 min after the injection.

Assay [2] has as its system MPTP-induced mice model of PD. The conditions noted are these: 25 mg/kg for 21 days; MPTP-induced mice model of PD (Zhao T. T. et al.); cited from earlier work.
The subject of assay [3] is PD patients carrying PLA2G6 mutations. The conditions noted are these: cited from earlier work.

Turning to `N[C@@H](Cc1ccc(O)c(O)c1)C(=O)O` [L-DOPA], the “symptoms of motor deficit” value in assay [1] is “significantly improve symptoms of said motor deficit”. Moreover, in assay [2], the therapeutic effect result is on record as “significant therapeutic effect”. Further, in assay [3], the “effectiveness in treating patients” value is “effective”.
